# Measurements reported in patent US11945794B2, “Nuclear transport modulators and uses thereof” (Karyopharm Therapeutics Inc., priority 2013, dated 2024).
# What was measured:
# XPO1 = target: T1, XPO1 (Homo sapiens, UniProt O14980); test: XPO1 degradation assay in HT1080 cells (Western blot); format: cell-based; settings: five concentrations, 24 hours
# T1 construct: endogenous in cells; host or cells: HT1080 (fibrosarcoma) cells
# Excerpt: Western blot analysis of cellular lysates of the treated cells was used to determine the protein expression of XPO1. Beta-actin was used as a loading control.
# [1] = tested on: anti-collagen antibody-induced arthritis; test: Collagen antibody-induced arthritis (CAIA) mouse model; format: in vivo
# Method: On study Day 0 (study commencement), all mice were subjected to a 4 mg intravenous injection of ArthritoMAb™ antibody cocktail (MD Biosciences #51306001), followed by an intraperitoneal injection of LPS (50 μg/mouse) on study Day 3. The mice began treatment on Day 6, when the average clinical scores reached 2.
# The animals were examined for signs of arthritis on study Day 0 in all paws (front left and right paws, hind left and right paws). The signs of arthritis on study Day 0 served as a baseline for the arthritis clinical score parameter. Arthritic responses were examined daily from Day 3 until Day 8, and on Days 10, 12, 15 and 18 (study termination).
# Clinical signs data are presented as means±SEM (standard error of the mean). Treatment groups 2-3 were compared to vehicle group 1 using one-way ANOVA test followed by Tukey post-test. A p value of <0.05 is considered to represent a significant difference.
# Hep 3B xenograft = test: Hep3B hepatocellular carcinoma xenograft model; format: in vivo, mouse
# Method: Hep 3B cells (ATCC #HTB-8064) hepatocellular carcinoma cells were obtained from ATCC. These cells were grown in DMEM medium supplemented with 10% fetal bovine serum, 1% penicillin and streptomycin. Cells were sub-cultured by dilution at a ratio of 1:4. Hep3B cells were harvested by centrifugation and counted using a hemocytometer. Cells were resuspended in PBS at a concentration of 5×10^7 cells per mL. Cells were placed on ice, and then mixed with an equal volume of Matrigel™ (BD Biosciences CB-40234). This mixture was kept on ice and injected into the left flank of mice in a volume of 0.2 mL, equivalent to 5×10^6 cells per mouse. Thirty-two (32) SCID mice were inoculated subcutaneously in the left flank with 5×10^6 Hep 3B cells. Treatment was initiated when the tumors reached a mean volume of 103.7 mm^3 (standard deviation±30 mm^3, range 17-183 mm^3). Mice were allocated to four (4) groups of eight (8) mice such that mean tumor volume in each group was within the range of 95 to 104 mm^3. […] With the exception of doxorubicin (which was given IP), all compounds were given by oral gavage. […] Animal weights and conditions were recorded daily, and tumors were measured on Mondays, Wednesdays and Fridays.
# wild-type CRM1 = target: T2, wild-type CRM1 (Homo sapiens, UniProt O14980); test: Cys 528 mutation assay, Rev-GFP localization; format: cell-based; settings: 30 μM, 4 hours, U2OS Rev-GFP cells
# T2 construct: expressed in transfected cells; host or cells: U2OS (osteosarcoma) cells stably expressing Rev-GFP
# T2 sequence (O14980 whole entry, species assumed): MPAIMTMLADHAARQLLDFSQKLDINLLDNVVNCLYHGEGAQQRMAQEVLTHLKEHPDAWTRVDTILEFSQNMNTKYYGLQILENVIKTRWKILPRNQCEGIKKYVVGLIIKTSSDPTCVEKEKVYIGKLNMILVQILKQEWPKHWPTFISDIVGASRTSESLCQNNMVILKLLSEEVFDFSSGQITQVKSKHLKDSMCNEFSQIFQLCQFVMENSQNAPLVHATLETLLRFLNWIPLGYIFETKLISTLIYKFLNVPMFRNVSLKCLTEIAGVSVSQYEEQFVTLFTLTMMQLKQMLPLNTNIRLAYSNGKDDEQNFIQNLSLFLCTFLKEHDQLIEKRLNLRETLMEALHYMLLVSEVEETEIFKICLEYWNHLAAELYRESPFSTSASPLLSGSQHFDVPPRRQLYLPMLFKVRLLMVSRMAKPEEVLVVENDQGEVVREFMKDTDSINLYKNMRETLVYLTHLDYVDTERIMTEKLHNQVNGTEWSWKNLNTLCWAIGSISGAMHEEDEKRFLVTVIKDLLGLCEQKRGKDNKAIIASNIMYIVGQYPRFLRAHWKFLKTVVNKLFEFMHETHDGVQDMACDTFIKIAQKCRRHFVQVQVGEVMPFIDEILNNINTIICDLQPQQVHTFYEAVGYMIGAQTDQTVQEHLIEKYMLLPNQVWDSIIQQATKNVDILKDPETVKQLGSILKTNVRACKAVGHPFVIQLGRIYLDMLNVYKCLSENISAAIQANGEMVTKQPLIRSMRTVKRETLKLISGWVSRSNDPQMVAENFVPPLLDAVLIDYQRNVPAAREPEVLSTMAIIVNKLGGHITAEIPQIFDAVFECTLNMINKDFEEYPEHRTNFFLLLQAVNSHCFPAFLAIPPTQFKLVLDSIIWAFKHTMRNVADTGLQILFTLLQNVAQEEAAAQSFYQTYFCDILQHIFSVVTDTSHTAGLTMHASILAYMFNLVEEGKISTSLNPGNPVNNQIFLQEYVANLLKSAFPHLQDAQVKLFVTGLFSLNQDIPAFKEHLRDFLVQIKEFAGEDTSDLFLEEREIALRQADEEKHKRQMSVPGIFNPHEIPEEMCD
# Method: U2OS (osteosarcoma) cells stably expressing GFP-tagged HIV-Rev fused to the cAMP-dependent protein kinase inhibitor (PM) nuclear export signal (Rev-GFP) were transiently transfected with constructs expressing wild-type CRM1 or mutant CRM1-Cys528Ser for 36 hours. The transient transfection efficiency in the experiment was estimated to be 50%.
# Z-138 xenograft = test: Z-138 mantle cell lymphoma xenograft model; format: in vivo, mouse
# Method: Z-138 (ATCC #CRL-3001) mantle cell lymphoma cells were obtained from ATCC. These cells were grown in IMEM medium supplemented with 10% horse serum, 1% penicillin and streptomycin, and 2 mM L-glutamine. Cells were sub-cultured by dilution at a ratio of 1:5 to 1:10. Z-138 cells were harvested by centrifugation and counted using a hemocytometer. Cells were resuspended in PBS at a concentration of 2×10^8 cells per mL. Cells were placed on ice and mixed with an equal volume of Matrigel (BD Biosciences CB-40234). This mixture was kept on ice and injected into the left flank of mice in a volume of 0.2 mL, equivalent to 2×10^7 cells per mouse. Thirty-two (32) CB-17 SCID mice were inoculated subcutaneously in the left flank with 2×10^7 Z-138 cells. Treatment was initiated when the tumors reached a mean volume of 125.2 mm^3. Mice were allocated to four (4) groups of eight (8) mice such that mean tumor volume in each group was within the range of 106.5 to 138.8 mm^3. […] Animal weights and conditions were recorded daily, and tumors were measured on Mondays, Wednesdays and Fridays.
# MOLT 4 xenograft = test: MOLT 4 acute lymphoblastic leukemia xenograft model; format: in vivo, mouse; settings: 5 or 15 mg/kg PO daily, SCID mice, compared to vehicle
# Method: MOLT 4 (CRL-1582) acute lymphoblastic leukemia cells were obtained from ATCC. These cells were grown in RPMI-1640 medium supplemented with 10% fetal bovine serum, 1% penicillin and streptomycin. Cells were sub-cultured by transferring floating cells to a new flask and trypsinizing adherent cells before subculturing at a ratio of 1:4. MOLT 4 cells were harvested by centrifugation and counted using a hemocytometer. Cells were resuspended in PBS at a concentration of 5×10^7 cells per mL. Cells were placed on ice, and then mixed with an equal volume of Matrigel™ (BD Biosciences CB-40234). This mixture was kept on ice and injected into the left flank of mice in a volume of 0.2 mL, equivalent to 5×10^6 cells per mouse. Thirty-two (32) SCID mice were inoculated subcutaneously in the left flank with 5×10^6 MOLT 4 cells. Treatment was initiated when the tumors reached a mean volume of 106.5 mm^3 (standard deviation±33.9 mm^3, CV 31.9%, range 43-181 mm^3). Mice were allocated to four (4) groups of eight (8) mice, […], such that mean tumor volume in each group was within the range of 102 to 111 mm^3. […] With the exception of doxorubicin (which was given IP), all compounds were given by oral gavage. […] Animal weights and conditions were recorded daily, and tumors were measured on Mondays, Wednesdays and Fridays.
# 3T3 = test: MTT assay panel; format: cell-based; settings: Mus musculus, NIH3T3; 3T3 cells, 72 hours
# Method: (§1) Compound 124 was further tested against a panel of selected solid and hematological cancer cell lines and selected normal cell lines in an MTT assay. Briefly, the various cell lines above were plated at different densities on day 1. […] Cell Titer AQueous One was added to each well, and the plates were read in a plate reader at OD 495.
# NCI-H2170 = test: MTT assay panel; format: cell-based; settings: Homo sapiens; NCI-H2170 cells, 72 hours
# Method: as §1
# BL-2 = test: MTT assay panel; format: cell-based; settings: BL2; BL-2 cells, 72 hours
# Method: as §1
# T1 sequence (O14980 whole entry): as the sequence (O14980 whole entry, species assumed) above
structure (smiles),measurement,setting,value
"NC(=O)/C(=C/n1cnc(-c2cc(C(F)(F)F)cc(C(F)(F)F)c2)n1)c1cncnc1 [Compound 124, (E)-3-(3-(3,5-bis(trifluoromethyl)phenyl)-1H-1,2,4-triazol-1-yl)-2-(pyrimidin-5-yl)acrylamide]",protein expression of XPO1,XPO1,degraded XPO1 in a dose-dependent manner
same,percentage of animals that showed clinical signs of arthritis,"[1]; 20 mg/kg PO twice a week, study Day 6 (start of treatment)",78%
same,percentage of animals that showed clinical signs of arthritis,"[1]; 20 mg/kg PO twice a week, study Day 18",22%
same,mean clinical score for all paws (arthritis scores),"[1]; 20 mg/kg or 40 mg/kg PO, compared to vehicle",reduced arthritis scores
same,percentage of animals that showed clinical signs of arthritis,"[1]; 40 mg/kg PO twice a week, study Day 6 (start of treatment)",88%
same,percentage of animals that showed clinical signs of arthritis,"[1]; 40 mg/kg PO twice a week, study Day 18",13%
same,mean tumor volume,"Hep 3B xenograft; 5 or 15 mg/kg PO daily, SCID mice, compared to vehicle",mean tumor volume was reduced
same,mean tumor volume compared with standard of care,"Hep 3B xenograft; particularly 15 mg/kg PO daily, versus doxorubicin",compared favorably
same,"Rev-GFP localization, wild-type CRM1 co-expressed",wild-type CRM1,Rev-GFP was localized to the cell nucleus and nucleolus
same,mean tumor volume compared with standard of care,"Z-138 xenograft; 15 mg/kg PO daily, versus cyclophosphamide",compared favorably
same,mean tumor volume,"Z-138 xenograft; 5 or 15 mg/kg PO daily, CB-17 SCID mice, compared to vehicle",mean tumor volume was reduced
same,mean tumor volume,MOLT 4 xenograft,mean tumor volume was reduced
same,IC50,3T3,1.1 µM
same,IC50,NCI-H2170,2.14 µM
same,IC50,BL-2,0.03 µM
